Experimental data from patent US9580390B2, “Indazole compounds as kinase inhibitors and method of treating cancer with same” (University Health Network, priority 2011, dated 2017).
pIC50: −log10 of the molar value.

Tests used:
Breast cancer cells = assay: Cancer cell line growth inhibition (SRB assay); assay type: cell-based; conditions: Homo sapiens; MDA-MB-468; read-out: Cancer Cell Line GI50 Range MDA-MB-468
TICs (Colon 12) = assay: Colon tumor-initiating cell growth inhibition (Alamar Blue); assay type: cell-based; conditions: 216 h; Colon 12 TICs, 9 days; read-out: Tumor Initiating Cell GI50 Range Colon 12
TICs (Ovarian 2393A) = assay: Ovarian tumor-initiating cell growth inhibition (Alamar Blue); assay type: cell-based; conditions: 144 h; Ovarian 2393A TICs, 6 days; read-out: Tumor Initiating Cell GI50 Range Ovarain 2393A
From the text: Materials and Methods: Non-tissue or tissue cultured treated T-75 flask and 96-well plates were purchased from VWR. Vitamin B-27 supplement, MEM NEAA (minimum essential medium non essential amino acids), sodium pyruvate, L-glutamine, N2 supplement, penicillin-streptomycin and fungizone/amphotericin B were obtained from Invitrogen. Lipid mixture, heparin and EGF were purchased from Sigma; bFGF from BD Biosciences. Tumor Initiating Cells (TICs) from colon were routinely maintained using non-tissue cultured treated T-75 flasks in DMEM:F12 medium containing 0.2×B-27 supplement, 4 ug/ml heparin, 1×MEM NEAA, 1× sodium pyruvate, 1 mM glutamine, 10 pg/ul bFGF, 20 pg/ul EGF, 1×N2 supplement, lipid mixture, penicillin-streptomycin and fungizone/amphotericin B. Ovarian TICs were routinely maintained using tissue cultured treated T-75 flasks in DMEM:F12 medium containing 1×B-27 supplement, 4 ug/ml heparin, 20 pg/ul bFGF, 20 pg/ul EGF and penicillin-streptomycin.
Assay Protocol: Compounds described herein were dissolved in DMSO and further diluted in cell culture medium for GI50 determination. Colon TICs were trypsinized and seeded into non-tissue cultured treated 96-well plates with 4,000 cells/well. After 24 h, compound was added into the cell culture at different concentrations, and the final concentration of DMSO was adjusted to 0.1%. Cells were then cultured at 37° C. for 9 days. Ovarian TICs were trypsinized and seeded into tissue cultured treated 96-well plates with 1,000 cells/well. After 24 h, compound was added into the cell culture at different concentrations, and the final concentration of DMSO was adjusted to 0.1%. Cells were then cultured at 37° C. for 6 days. Cell viability was assessed by Alamar Blue assay: 10 ul of Alamar Blue was added into each well. After 4 hours incubation at 37° C., fluorescence was recorded at excitation 544 and emission 590. GI50 (Growth inhibition) was calculated using GraphPad Prism 4.0 software.

[1] = system: ovarian cancer cells (PA-1); assay: Cancer cell line growth inhibition (SRB assay); assay type: cell-based; conditions: Homo sapiens, PA-1; read-out: Cancer Cell Line GI50 Range PA-1
[2] = system: colon cancer cells (HCT116); assay: Cancer cell line growth inhibition (SRB assay); assay type: cell-based; conditions: Homo sapiens, HCT-116; read-out: Cancer Cell Line GI50 Range HCT116
human TTK = target: T1, human TTK (Homo sapiens, UniProt P33981); assay: TTK inhibition assay (indirect ELISA); assay type: biochemical; conditions: read-out: TTK IC50 Range
T1 construct: amino terminal GST fusion of full length human TTK; purchased Invitrogen
T1 sequence (P33981 1-857): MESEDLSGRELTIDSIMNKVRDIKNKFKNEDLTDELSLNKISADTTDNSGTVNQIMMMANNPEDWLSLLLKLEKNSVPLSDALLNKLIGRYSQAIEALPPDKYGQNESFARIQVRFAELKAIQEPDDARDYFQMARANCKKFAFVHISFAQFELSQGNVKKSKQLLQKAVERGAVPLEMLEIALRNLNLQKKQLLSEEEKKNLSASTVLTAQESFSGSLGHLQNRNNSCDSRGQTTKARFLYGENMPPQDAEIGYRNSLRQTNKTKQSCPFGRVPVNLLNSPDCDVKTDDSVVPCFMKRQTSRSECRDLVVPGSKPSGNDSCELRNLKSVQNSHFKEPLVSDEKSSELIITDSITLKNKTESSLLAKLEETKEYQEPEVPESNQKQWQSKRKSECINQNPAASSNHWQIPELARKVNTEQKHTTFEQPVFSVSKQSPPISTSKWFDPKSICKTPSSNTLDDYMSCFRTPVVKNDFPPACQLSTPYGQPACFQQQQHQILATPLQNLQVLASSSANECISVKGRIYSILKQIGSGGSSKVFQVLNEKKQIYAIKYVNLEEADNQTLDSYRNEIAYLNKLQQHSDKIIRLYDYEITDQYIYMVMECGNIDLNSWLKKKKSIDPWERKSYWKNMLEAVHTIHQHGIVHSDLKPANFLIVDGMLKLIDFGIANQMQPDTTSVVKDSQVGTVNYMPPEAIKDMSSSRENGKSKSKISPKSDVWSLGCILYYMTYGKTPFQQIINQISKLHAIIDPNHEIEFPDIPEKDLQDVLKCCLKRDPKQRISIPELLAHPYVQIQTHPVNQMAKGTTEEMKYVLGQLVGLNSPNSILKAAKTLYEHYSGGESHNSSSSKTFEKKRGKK

SMILES	GI50 (Breast cancer cells) [nM]	GI50 (TICs (Colon 12)) [nM]	GI50 (TICs (Ovarian 2393A)) [nM]	GI50 [1] [nM]	GI50 [2] [nM]	pIC50 (human TTK)
CC(C)C(NC(=O)c1ccc2[nH]nc(-c3ccc(O[C@H]4C[C@H]5CC[C@@H](C4)N5C4COC4)cc3)c2c1)c1ccccn1 (stereo partly drawn) [Example A325, N-(2-methyl-1-(pyridin-2-yl)propyl)-3-(4-(((1R,3R,5S)-8-(oxetan-3-yl)-8-azabicyclo[3.2.1]octan-3-yl)oxy)phenyl)-1H-indazole-5-carboxamide]	100 to 500	< 100	100 to 500	100 to 500	100 to 500	> 7.00
O=C(N[C@@H](c1ccccc1F)C1CC1)c1ccc2[nH]nc(-c3ccc(N4C5CCC4CC(O)C5)cc3)c2c1 (stereo partly drawn) [Example A266, N-((R)-cyclopropyl(2-fluorophenyl)methyl)-3-(4-((1R,3R,5S)-3-hydroxy-8-azabicyclo[3.2.1]octan-8-yl)phenyl)-1H-indazole-5-carboxamide]	< 100	< 100	< 100	< 100	< 100	> 7.00
CN1C2CCC1CC(Oc1ccc(-c3n[nH]c4ccc(C(=O)N[C@H](c5ccccc5)C5CC5)cc34)cc1)C2 (stereo partly drawn) [Example A376, N-((S)-cyclopropyl(phenyl)methyl)-3-(4-(((1R,3R,5S)-8-methyl-8-azabicyclo[3.2.1]octan-3-yl)oxy)phenyl)-1H-indazole-5-carboxamide]	100 to 500	100 to 500	100 to 500	< 100	< 100	> 7.00
CCC[C@H](NC(=O)c1ccc2[nH]nc(-c3ccc(OC4CC5CCC(C4)N5C=O)cc3)c2c1)c1ccccc1 (stereo partly drawn) [Example A343, 3-(4-(((1R,3R,5S)-8-formyl-8-azabicyclo[3.2.1]octan-3-yl)oxy)phenyl)-N-((S)-1-phenylbutyl)-1H-indazole-5-carboxamide]	100 to 500	< 100	100 to 500	< 100	< 100	> 7.00
CC(C)C(NC(=O)c1ccc2[nH]nc(-c3ccc(O[C@H]4C[C@H]5CC[C@@H](C4)N5C)cc3)c2c1)c1ccccc1Cl (stereo partly drawn) [Example A279, N-(1-(2-chlorophenyl)-2-methylpropyl)-3-(4-(((1R,3R,5S)-8-methyl-8-azabicyclo[3.2.1]octan-3-yl)oxy)phenyl)-1H-indazole-5-carboxamide]	< 100	100 to 500	100 to 500	< 100	< 100	> 7.00
CC(C)[C@H](NC(=O)c1ccc2[nH]nc(-c3ccc(N4CC(C5COC5)C4)cc3)c2c1)c1ccccc1Cl [Example A310, (S)-N-(1-(2-chlorophenyl)-2-methylpropyl)-3-(4-(3-(oxetan-3-yl)azetidin-1-yl)phenyl)-1H-indazole-5-carboxamide]	< 100	< 100	< 100	< 100	< 100	> 7.00
CC1=CC2(CCN(C)CC2)Oc2ccc(-c3n[nH]c4ccc(C(=O)N[C@H](c5ccccc5Cl)C(C)C)cc34)cc21 [Example A258, (S)-N-(1-(2-chlorophenyl)-2-methylpropyl)-3-(1′,4-dimethylspiro[chromene-2,4′-piperidin]-6-yl)-1H-indazole-5-carboxamide]	< 100	< 100	< 100	< 100	< 100	> 7.00
O=C(N[C@H](c1ccccn1)C1CCCC1)c1ccc2[nH]nc(-c3ccc(N4C5CCC4CC(O)C5)cc3)c2c1 (stereo partly drawn) [Example A360, N-((S)-cyclopentyl(pyridin-2-yl)methyl)-3-(4-((1R,3S,5S)-3-hydroxy-8-azabicyclo[3.2.1]octan-8-yl)phenyl)-1H-indazole-5-carboxamide]	< 100	< 100	< 100	< 100	< 100	> 7.00
O=C(N[C@H](c1ccccn1)C1CCCC1)c1ccc2[nH]nc(-c3ccc(N4C5COCC4CC(O)C5)cc3)c2c1 (stereo partly drawn) [Example A420, N-((S)-cyclopentyl(pyridin-2-yl)methyl)-3-(4-((1R,5S,7R)-7-hydroxy-3-oxa-9-azabicyclo[3.3.1]nonan-9-yl)phenyl)-1H-indazole-5-carboxamide]	< 100	< 100	< 100	< 100	< 100	> 7.00
O=C(N[C@H](c1ccccc1)C1CC1)c1ccc2[nH]nc(-c3ccc(N4C5CCC4CC(O)C5)cc3)c2c1 (stereo partly drawn) [Example A362, N-((S)-cyclopropyl(phenyl)methyl)-3-(4-((1R,3S,5S)-3-hydroxy-8-azabicyclo[3.2.1]octan-8-yl)phenyl)-1H-indazole-5-carboxamide]	< 100	< 100	< 100	< 100	< 100	> 7.00
O=C(N[C@@H](c1ccccn1)C1CCCC1)c1ccc2[nH]nc(-c3ccc(N4CCN(C5COC5)CC4)cc3)c2c1 [Example A411, (R)-N-(cyclopentyl(pyridin-2-yl)methyl)-3-(4-(4-(oxetan-3-yl)piperazin-1-yl)phenyl)-1H-indazole-5-carboxamide]	< 100	< 100	< 100	< 100	< 100	> 7.00
O=C(N[C@H](c1ccccn1)C1CC1)c1ccc2[nH]nc(-c3ccc(N4CC(C5COC5)C4)cc3)c2c1 [Example A311, (S)-N-(cyclopropyl(pyridin-2-yl)methyl)-3-(4-(3-(oxetan-3-yl)azetidin-1-yl)phenyl)-1H-indazole-5-carboxamide]	< 100	< 100	< 100	< 100	< 100	> 7.00
O=C(NC(c1ccccc1)C1CC1)c1ccc2[nH]nc(-c3ccc(O[C@H]4C[C@H]5CC[C@@H](C4)N5C4COC4)cc3)c2c1 (stereo partly drawn) [Example A321, N-(cyclopropyl(phenyl)methyl)-3-(4-(((1R,3R,5S)-8-(oxetan-3-yl)-8-azabicyclo[3.2.1]octan-3-yl)oxy)phenyl)-1H-indazole-5-carboxamide]	100 to 500	< 100	100 to 500	100 to 500	100 to 500	> 7.00
O=C(N[C@H](c1ccccc1F)C1CC1)c1ccc2[nH]nc(-c3ccc(N4CCN(C5COC5)CC4)cc3)c2c1 [Example A269, (S)-N-(cyclopropyl(2-fluorophenyl)methyl)-3-(4-(4-(oxetan-3-yl)piperazin-1-yl)phenyl)-1H-indazole-5-carboxamide]	< 100	< 100	< 100	< 100	< 100	> 7.00
CN1[C@@H]2CCC[C@H]1C[C@@H](Oc1ccc(-c3n[nH]c4ccc(C(=O)NC(c5ccccn5)C5CCCC5)cc34)cc1)C2 (stereo partly drawn) [Example A391, N-(cyclopentyl(pyridin-2-yl)methyl)-3-(4-(((1R,3R,5S)-9-methyl-9-azabicyclo[3.3.1]nonan-3-yl)oxy)phenyl)-1H-indazole-5-carboxamide]	100 to 500	< 100	100 to 500	< 100	< 100	> 7.00
